Patent publication US10017506B2, “ATX modulating agents” (BIOGEN MA INC., priority 2012, dated 2018)

Target: T1, Human ATX protein (Homo sapiens, UniProt Q13822)
T1 construct: made in house
Assay: ATX biochemical FRET assay with FS-3 substrate
Conditions: FRET substrate FS-3 2 μM, ATX 1.0 μg/mL, 30 minutes pre-incubation, 2 hours at room temperature; read-out: IC50
Source text: ATX (Autotaxin) is a 125 KDa glycoprotein with lysophospholipase D (LPLD) activity that generates the bioactive lipid lysophosphatidic acid (LPA) from lysophosphatidylcholine (LPC). The ATX biochemical assay utilizes a FRET (fluorescence resonance energy transfer) technology platform. The fluorescence signal of FRET substrate FS-3 is quenched due to intra-molecular FRET of a fluorophore to a non-fluorescing quencher (Ferguson, C. G., et al., Org Lett. 2006 May 11; 8(10): 2023-2026, which is incorporated by reference in its entirety). ATX catalyzes the hydrolysis of the substrate which separates the dabsyl quencher from the fluorescein reporter, which becomes fluorescent. The reaction is monitored by a SpectraMax M5 (Molecular Devices, Sunnyvale, Calif.) with at excitation wavelength 485 nm and emission wavelength […].
Fatty acid free-BSA (Sigma A8806): 10 mg/mL in H2O, stored at 4° C.
2×ATX assay buffer: 100 mM Tris, 280 mM NaCl, 10 mM KCl, 2 mM CaCl2, 2 mM MgCl2, pH 7.4.
Human ATX protein: expressed and purified in house. Stored at −80° C.
Substrate FS-3 (Echelon, L-2000): 100 μg in 77.74 μL H2O (1 mM stock), stored at −20° C.
384-well flat bottom plates—Corning #3575.
Compound dilution—All compounds were provided at 10 mM in 100% DMSO. In the first well, 2 μL of 10 mM compound was added to 78 μL of DMSO (1:40 dilution). In subsequent wells 3-fold dilution (total 10 dilutions) were performed.
1×ATX assay buffer was made up with a final concentration of 1 mg/mL fatty acid free-BSA using 2×ATX assay buffer, 10 mg/ml fatty acid free-BSA and ddH2O.
ATX protein was diluted with 1×ATX assay buffer to a concentration of 1.32 μg/mL (1.32×). 38 μL was added per well to the assay plate. The final concentration of ATX in the reaction as 1.0 μg/mL.
2 μL per well of compounds was transferred to provide the desired concentration. The plate was centrifuged, then incubated at room temperature for 30 minutes on the shaker.
Then, 10 μL was added per well to the assay plate. […] The plate was centrifuged. The plate was kept shaking at room temperature for 2 hours. Because FS-3 substrate is light sensitive, plates were kept covered and protected from light.
Fluorescence was measured using SpectraMax M5 (excitation at 485 nm/emission at 538 nm, top read).

Q: How did the IC50 turn out when `CC[C@H]1CC[C@@H](Oc2ccc3ccc(C(C)N4CCC(C(=O)O)CC4)cc3c2C(F)(F)F)CC1` (stereo partly drawn) [Example 57, 1-(1-(7-((cis-4-ethylcyclohexyl)oxy)-8-(trifluoromethyl)naphthalen-2-yl)ethyl)piperidine-4-carboxylic acid] was run?
A: The IC50 was ≤ 0.1 µM.

Q: How did the IC50 turn out when `CC[C@H]1CC[C@@H](Oc2ccc3ccc([C@H](C)N[C@H]4CC[C@@H](C(=O)O)CC4)cc3c2C(F)(F)F)CC1` [Example 135a, cis-4-(((S)-1-(7-((cis-4-ethylcyclohexyl)oxy)-8-(trifluoromethyl)naphthalen-2-yl)ethyl)amino)cyclohexanecarboxylic acid] was run?
A: The IC50 was ≤ 0.1 µM.

Q: How did the IC50 turn out when `CC(C)(C)[C@H]1CC[C@H](Nc2cc3cc(C(=O)NC45CCC(C(=O)O)(CC4)CC5)ccc3cn2)CC1` [Example 152, 4-(3-((trans-4-(tert-butyl)cyclohexyl)amino)isoquinoline-6-carboxamido)bicyclo[2.2.2]octane-1-carboxylic acid] was run?
A: Its IC50 is ≤ 0.1 µM.

Q: `O=C(O)[C@H]1CC[C@H](NCc2ccc3ccc(O[C@H]4CC[C@@H](C(F)(F)F)CC4)c(C(F)(F)F)c3c2)CC1` [Example 125, trans-4-(((8-(trifluoromethyl)-7-((cis-4-(trifluoromethyl)cyclohexyl)oxy)naphthalen-2-yl)methyl)amino)cyclohexanecarboxylic acid] was tested. Which IC50 did it give?
A: Its IC50 is ≤ 0.5 µM.

Q: With `CC[C@H]1CC[C@@H](Oc2ccc3ccc([C@H](C)N[C@H]4C[C@@H](C(=O)O)C4(C)C)cc3c2C(F)(F)F)CC1` [Example 118b, (1R,3S)-3-(((S)-1-(7-((cis-4-ethylcyclohexyl)oxy)-8-(trifluoromethyl)naphthalen-2-yl)ethyl)amino)-2,2-dimethylcyclobutanecarboxylic acid] as the compound, how does the IC50 read?
A: The IC50 was ≤ 0.1 µM.

Q: With `C[C@@H](N[C@H]1C[C@H](C(=O)O)C1(C)C)c1ccc2ccc(O[C@H]3CC[C@@H](C)CC3)c(C(F)(F)F)c2c1` [Example 114c, (1S,3S)-2,2-dimethyl-3-(((R)-1-(7-((cis-4-methylcyclohexyl)oxy)-8-(trifluoromethyl)naphthalen-2-yl)ethyl)amino)cyclobutanecarboxylic acid] as the compound, how does the IC50 read?
A: The IC50 was ≤ 0.1 µM.

Q: How did the IC50 turn out when `CC1(C)C(NCc2ccc3ccc(O[C@H]4CC[C@@H](C(F)(F)F)CC4)c(C(F)(F)F)c3c2)CC1C(=O)O` (stereo partly drawn) [Example 8, 2,2-dimethyl-3-(((8-(trifluoromethyl)-7-((cis-4-(trifluoromethyl)cyclohexyl)oxy)-naphthalen-2-yl)methyl)amino)cyclobutanecarboxylic acid] was run?
A: The IC50 was ≤ 0.25 µM.

Q: How did the IC50 turn out when `O=C(O)CC1CCC(NCc2ccc3ccc(O[C@H]4CC[C@@H](C(F)(F)F)CC4)c(C(F)(F)F)c3c2)CC1` (stereo partly drawn) [Example 126, 2-(4-(((8-(trifluoromethyl)-7-((cis-4-(trifluoromethyl)cyclohexyl)oxy)naphthalen-2-yl)methyl)amino)cyclohexyl)acetic acid] was run?
A: The IC50 was ≤ 0.5 µM.

Q: With `C[C@@H](N[C@H]1CC[C@@H](C(=O)O)CC1)c1ccc2ccc(O[C@H]3CC[C@@H](C(F)(F)F)CC3)c(C(F)(F)F)c2c1` [Example 136b, cis-4-(((R)-1-(8-(trifluoromethyl)-7-((cis-4-(trifluoromethyl)cyclohexyl)oxy)naphthalen-2-yl)ethyl)amino)cyclohexanecarboxylic acid] as the compound, how does the IC50 read?
A: The IC50 was ≤ 0.25 µM.

Q: With `CC1(C)C(NCc2ccc3ccc(O[C@H]4CC[C@@H](C)CC4)c(C(F)(F)F)c3c2)CC1C(=O)O` (stereo partly drawn) [Example 78, 2,2-dimethyl-3-(((7-((cis-4-methylcyclohexyl)oxy)-8-(trifluoromethyl)naphthalen-2-yl)methyl)amino)cyclobutanecarboxylic acid] as the compound, how does the IC50 read?
A: Its IC50 is ≤ 0.25 µM.

Q: For `CC[C@H]1CC[C@@H](Oc2ccc3ccc(C(C)NC45CCC(C(=O)O)(CC4)C5)cc3c2C(F)(F)F)CC1` (stereo partly drawn) [Example 130, 4-((1-(7-((cis-4-ethylcyclohexyl)oxy)-8-(trifluoromethyl)naphthalen-2-yl)ethyl)amino)bicyclo[2.2.1]heptane-1-carboxylic acid], which IC50 is on record?
A: The IC50 was ≤ 0.25 µM.

Q: With `CC(N[C@H]1C[C@@H](C(=O)O)C1(C)C)c1ccc2ccc(O[C@H]3CC[C@@H](C)CC3)c(C(F)(F)F)c2c1` (stereo partly drawn) [Example 113, (1R,3S)-2,2-dimethyl-3-((1-(7-((cis-4-methylcyclohexyl)oxy)-8-(trifluoromethyl)naphthalen-2-yl)ethyl)amino)cyclobutanecarboxylic acid] as the compound, how does the IC50 read?
A: The IC50 was ≤ 0.1 µM.

Same assay, conditions: IC50, FRET substrate FS-3 2 μM, ATX 1.0 μg/mL, 30 minutes pre-incubation, 2 hours at room temperature

Q: Which IC50 does the source give for `CC[C@H]1CC[C@@H](Oc2ccc3ccc(C(C)N4C5CCC4CC(C(=O)O)C5)cc3c2C(F)F)CC1` (stereo partly drawn) [Example 63, 8-(1-(8-(difluoromethyl)-7-((cis-4-ethylcyclohexyl)oxy)naphthalen-2-yl)ethyl)-8-azabicyclo[3.2.1]octane-3-carboxylic acid] here?
A: Its IC50 is ≤ 0.1 µM.

Q: With `CC(c1ccc2ccc(O[C@H]3CC[C@@H](C)CC3)c(C#N)c2c1)N1C2CCC1CC(C(=O)O)C2` (stereo partly drawn) [Example 101, 8-(1-(8-cyano-7-((cis-4-methylcyclohexyl)oxy)naphthalen-2-yl)ethyl)-8-azabicyclo[3.2.1]octane-3-carboxylic acid] as the compound, how does the IC50 read?
A: The IC50 was ≤ 0.1 µM.

Q: For `CCC(c1ccc2ccc(O[C@H]3CC[C@@H](C(F)(F)F)CC3)c(C#N)c2c1)N1C2CCCC1CC(C(=O)O)C2` (stereo partly drawn) [Example 41, 9-(1-(8-cyano-7-((cis-4-(trifluoromethyl)cyclohexyl)oxy)naphthalen-2-yl)propyl)-9-azabicyclo[3.3.1]nonane-3-carboxylic acid], which IC50 is on record?
A: The IC50 was ≤ 0.25 µM.

Q: Which IC50 does the source give for `C[C@H](c1ccc2ccc(O[C@H]3CC[C@@H](C)CC3)c(C(F)(F)F)c2c1)N1C2CCCC1CC(C(=O)O)C2` (single isomer, unassigned) [Example 5b] here?
A: Its IC50 is ≤ 0.1 µM.

Q: Which IC50 does the source give for `CC[C@H]1CC[C@@H](Oc2ccc3ccc(C(C)N4C5CCC4CC(C(=O)O)C5)cc3c2C(F)(F)F)CC1` (stereo partly drawn) [Example 55, 8-(1-(7-((cis-4-ethylcyclohexyl)oxy)-8-(trifluoromethyl)naphthalen-2-yl)ethyl)-8-azabicyclo[3.2.1]octane-3-carboxylic acid] here?
A: Its IC50 is ≤ 0.1 µM.

Q: Which IC50 does the source give for `C[C@H]1CC[C@@H](Oc2ccc3cc(F)c(CN4C5CCCC4CC(C(=O)O)C5)cc3c2C(F)(F)F)CC1` (stereo partly drawn) [Example 138, 9-((3-fluoro-7-((cis-4-methylcyclohexyl)oxy)-8-(trifluoromethyl)naphthalen-2-yl)methyl)-9-azabicyclo[3.3.1]nonane-3-carboxylic acid] here?
A: The IC50 was ≤ 0.25 µM.

Q: `CC(c1cc2c(C(F)(F)F)c(O[C@H]3CC[C@@H](C(F)(F)F)CC3)ccc2cc1F)N1C2CCC1CC(C(=O)O)C2` (stereo partly drawn) [Example 140, 8-(1-(3-fluoro-8-(trifluoromethyl)-7-((cis-4-(trifluoromethyl)cyclohexyl)oxy)naphthalen-2-yl)ethyl)-8-azabicyclo[3.2.1]octane-3-carboxylic acid] was tested. Which IC50 did it give?
A: The IC50 was ≤ 0.1 µM.

Q: For `CC[C@H]1CC[C@@H](Oc2ccc3ccc(C(C)N4C5CCCC4CC(C(=O)O)C5)cc3c2C(F)(F)F)CC1` (stereo partly drawn) [Example 56, 9-(1-(7-((cis-4-ethylcyclohexyl)oxy)-8-(trifluoromethyl)naphthalen-2-yl)ethyl)-9-azabicyclo[3.3.1]nonane-3-carboxylic acid], which IC50 is on record?
A: The IC50 was ≤ 0.1 µM.

Q: `CC(C)[C@H]1CC[C@@H](Oc2ccc3ccc(CN4C5CCCC4CC(C(=O)O)C5)cc3c2C(F)(F)F)CC1` (stereo partly drawn) [Example 108, 9-((7-((cis-4-isopropylcyclohexyl)oxy)-8-(trifluoromethyl)naphthalen-2-yl)methyl)-9-azabicyclo[3.3.1]nonane-3-carboxylic acid] was tested. Which IC50 did it give?
A: The IC50 was ≤ 0.1 µM.

Q: `C[C@H]1CC[C@@H](Oc2ccc3ccc(CN4C5CCCC4CC(C(=O)O)C5)cc3c2C(F)(F)F)CC1` (stereo partly drawn) [Example 2, 9-[7-(cis-4-methyl-cyclohexyloxy)-8-trifluoromethyl-naphthalen-2-ylmethyl]-9-aza-bicyclo[3.3.1]nonane-3-carboxylic acid] was tested. Which IC50 did it give?
A: Its IC50 is ≤ 0.1 µM.

Q: How did the IC50 turn out when `O=C(O)C1CC2CCC(C1)N2Cc1ccc2ccc(O[C@H]3CC[C@@H](C(F)(F)F)CC3)c(Cl)c2c1` (stereo partly drawn) [Example 26, 8-((8-chloro-7-((cis-4-(trifluoromethyl)cyclohexyl)oxy)naphthalen-2-yl)methyl)-8-azabicyclo[3.2.1]octane-3-carboxylic acid] was run?
A: Its IC50 is ≤ 0.25 µM.

Q: With `CC(c1ccc2ccc(O[C@H]3CC[C@@H](C)CC3)c(Cl)c2c1)N1C2CCCC1CC(C(=O)O)C2` (stereo partly drawn) [Example 91, 9-(1-(8-chloro-7-((cis-4-methylcyclohexyl)oxy)naphthalen-2-yl)ethyl)-9-azabicyclo[3.3.1]nonane-3-carboxylic acid] as the compound, how does the IC50 read?
A: The IC50 was ≤ 0.25 µM.
